This passage reports Kd and IC50 results from patent US20260209223A1, “FGFR3 INHIBITOR COMPOUNDS” (TYRA BIOSCIENCES, INC., priority 2022, published 2026).

The target of one assay is T1, FGFR3 (V555M) (Homo sapiens, UniProt P22607, V555M).
T1 construct: made in house; host or cells: E. coli (BL21-derived) infected with T7 phage
The experiment in a line: Kinase binding assay (Kd), kinase-tagged T7 phage, affinity beads, qPCR. As to conditions: in vitro binding assay, 11-point 3-fold dilution series.

For a further assay, the target named is T2, FGFR1 (Homo sapiens, UniProt P11362).
T2 construct: made in house; host or cells: E. coli (BL21-derived) infected with T7 phage
T2 sequence (P11362 22-822): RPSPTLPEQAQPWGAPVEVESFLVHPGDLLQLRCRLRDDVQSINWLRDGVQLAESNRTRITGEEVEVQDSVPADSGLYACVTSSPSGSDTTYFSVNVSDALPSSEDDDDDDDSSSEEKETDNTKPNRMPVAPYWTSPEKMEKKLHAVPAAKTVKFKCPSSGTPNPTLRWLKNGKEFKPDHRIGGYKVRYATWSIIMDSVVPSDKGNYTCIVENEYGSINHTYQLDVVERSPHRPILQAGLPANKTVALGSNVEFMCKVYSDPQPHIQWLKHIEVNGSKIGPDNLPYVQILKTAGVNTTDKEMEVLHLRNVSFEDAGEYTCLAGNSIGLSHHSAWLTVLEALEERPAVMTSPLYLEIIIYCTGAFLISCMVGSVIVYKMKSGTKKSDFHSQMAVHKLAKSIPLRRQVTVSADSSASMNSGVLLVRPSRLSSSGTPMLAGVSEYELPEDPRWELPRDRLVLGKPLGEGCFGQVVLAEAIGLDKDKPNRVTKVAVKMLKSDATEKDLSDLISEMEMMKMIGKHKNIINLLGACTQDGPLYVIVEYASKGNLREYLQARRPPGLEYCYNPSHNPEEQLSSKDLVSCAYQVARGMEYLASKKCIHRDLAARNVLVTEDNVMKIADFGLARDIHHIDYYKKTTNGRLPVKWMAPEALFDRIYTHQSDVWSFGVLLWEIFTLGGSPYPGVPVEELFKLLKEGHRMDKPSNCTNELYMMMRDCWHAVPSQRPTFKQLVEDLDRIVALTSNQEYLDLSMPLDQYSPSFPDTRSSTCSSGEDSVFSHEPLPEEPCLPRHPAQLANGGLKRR
Described as above. The following applies: in vitro binding assay, 11-point 3-fold dilution series.

For another assay, the target named is T3, FGFR3 (Homo sapiens, UniProt P22607).
T3 construct: made in house; host or cells: E. coli (BL21-derived) infected with T7 phage
T3 sequence (P22607 23-806): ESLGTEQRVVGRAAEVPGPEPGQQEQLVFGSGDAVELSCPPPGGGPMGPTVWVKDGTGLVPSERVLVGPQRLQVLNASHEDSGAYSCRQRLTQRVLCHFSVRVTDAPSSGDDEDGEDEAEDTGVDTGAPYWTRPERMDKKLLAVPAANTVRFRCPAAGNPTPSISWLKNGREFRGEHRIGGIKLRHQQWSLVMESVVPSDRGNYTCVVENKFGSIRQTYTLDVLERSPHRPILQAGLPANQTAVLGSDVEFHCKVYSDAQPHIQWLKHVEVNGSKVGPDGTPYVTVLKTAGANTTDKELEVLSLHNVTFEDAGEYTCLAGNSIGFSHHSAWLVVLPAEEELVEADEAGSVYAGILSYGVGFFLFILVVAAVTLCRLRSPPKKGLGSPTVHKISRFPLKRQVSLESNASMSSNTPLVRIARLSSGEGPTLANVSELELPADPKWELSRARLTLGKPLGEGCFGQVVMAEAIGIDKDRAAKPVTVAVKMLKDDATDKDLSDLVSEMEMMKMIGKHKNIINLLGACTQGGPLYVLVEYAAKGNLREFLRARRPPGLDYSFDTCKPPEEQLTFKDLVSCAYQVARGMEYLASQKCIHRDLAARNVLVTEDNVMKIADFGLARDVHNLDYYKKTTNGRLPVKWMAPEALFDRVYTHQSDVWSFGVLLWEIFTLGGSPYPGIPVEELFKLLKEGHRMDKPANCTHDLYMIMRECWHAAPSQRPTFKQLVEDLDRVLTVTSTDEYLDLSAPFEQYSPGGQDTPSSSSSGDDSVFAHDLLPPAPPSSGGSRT
Described as above. As to conditions: in vitro binding assay, 11-point 3-fold dilution series.

A further assay has as its target T4, FGFR4 (Homo sapiens, UniProt P22455).
T4 construct: made in house; host or cells: E. coli (BL21-derived) infected with T7 phage
Described as above. The following applies: in vitro binding assay, 11-point 3-fold dilution series.

In another assay the target is T5, FGFR2 (Homo sapiens, UniProt P21802).
T5 construct: made in house; host or cells: E. coli (BL21-derived) infected with T7 phage
T5 sequence (P21802 22-821): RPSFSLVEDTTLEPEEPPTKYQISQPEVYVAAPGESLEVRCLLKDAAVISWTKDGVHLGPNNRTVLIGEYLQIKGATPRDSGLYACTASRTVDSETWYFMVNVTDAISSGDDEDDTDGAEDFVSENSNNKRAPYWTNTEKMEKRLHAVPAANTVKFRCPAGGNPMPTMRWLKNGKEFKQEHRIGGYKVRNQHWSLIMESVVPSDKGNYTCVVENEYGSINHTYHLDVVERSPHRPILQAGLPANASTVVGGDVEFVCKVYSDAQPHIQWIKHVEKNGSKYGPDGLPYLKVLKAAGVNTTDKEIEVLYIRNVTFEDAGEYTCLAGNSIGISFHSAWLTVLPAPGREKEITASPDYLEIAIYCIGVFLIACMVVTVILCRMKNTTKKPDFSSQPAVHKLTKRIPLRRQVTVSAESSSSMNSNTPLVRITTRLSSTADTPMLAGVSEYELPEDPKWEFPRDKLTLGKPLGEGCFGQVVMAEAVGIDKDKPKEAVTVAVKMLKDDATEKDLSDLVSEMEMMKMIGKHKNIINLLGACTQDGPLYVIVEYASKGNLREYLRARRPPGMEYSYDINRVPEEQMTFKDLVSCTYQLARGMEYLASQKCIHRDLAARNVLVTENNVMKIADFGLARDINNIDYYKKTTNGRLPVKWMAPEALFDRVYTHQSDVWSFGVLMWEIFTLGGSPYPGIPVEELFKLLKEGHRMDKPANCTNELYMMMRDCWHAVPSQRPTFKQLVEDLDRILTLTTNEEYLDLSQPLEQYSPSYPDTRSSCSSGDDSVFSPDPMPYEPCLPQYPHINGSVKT
Described as above. The following applies: in vitro binding assay, 11-point 3-fold dilution series.

Another assay deals with KatoIIII. As to the kind of experiment: Cancer cell line cell viability assay (CellTiter-Glo 2.0). It counts as cell-based. As to conditions: 72 hours. A general note: In ATP-based viability assays light output follows the ATP content of the culture.
For the next assay, the target named is T6, Ba/F3 ETV5-FGFR4 (Homo sapiens, UniProt P22455).
T6 construct: host or cells: Ba/F3; the other entry of the earlier key: ETV5 (P41161, ETS translocation variant 5)
T6 sequence (P22455 467-755 limits assumed): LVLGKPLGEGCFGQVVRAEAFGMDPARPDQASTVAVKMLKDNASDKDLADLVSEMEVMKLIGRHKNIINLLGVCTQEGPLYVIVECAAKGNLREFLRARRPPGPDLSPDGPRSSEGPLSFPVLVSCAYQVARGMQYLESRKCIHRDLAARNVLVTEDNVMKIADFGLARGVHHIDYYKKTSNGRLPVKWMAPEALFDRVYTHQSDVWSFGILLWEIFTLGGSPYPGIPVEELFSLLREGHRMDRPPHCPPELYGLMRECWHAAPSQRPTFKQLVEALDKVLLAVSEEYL
As to the kind of experiment: Ba/F3 cell viability assay (CellTiter-Glo 2.0). It counts as cell-based. The following applies: Ba/F3 cell data, ETV5-FGFR4 fusion, 48 hours.

The target in another assay is T7, Ba/F3 BCR-FGFR2 (Homo sapiens, UniProt P21802).
T7 construct: BCR (fusion partner); host or cells: Ba/F3; the other entry of the earlier key: BCR (P11274, Breakpoint cluster region protein)
T7 sequence (P21802 481-770 limits assumed): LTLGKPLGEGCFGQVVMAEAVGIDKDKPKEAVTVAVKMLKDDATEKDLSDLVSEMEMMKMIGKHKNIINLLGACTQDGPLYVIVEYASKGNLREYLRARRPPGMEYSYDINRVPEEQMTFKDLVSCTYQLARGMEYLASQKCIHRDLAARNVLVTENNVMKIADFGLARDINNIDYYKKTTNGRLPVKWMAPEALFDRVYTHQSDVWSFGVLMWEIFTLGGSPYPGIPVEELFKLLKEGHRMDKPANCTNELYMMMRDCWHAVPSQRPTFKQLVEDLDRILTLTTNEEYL
The experiment in a line: Ba/F3 cell viability assay (CellTiter-Glo 2.0). It counts as cell-based. The following applies: Ba/F3 cell data, BCR-FGFR2 fusion, 48 hours.

For another assay, the target named is T8, Ba/F3 BCR-FGFR1 (Homo sapiens, UniProt P11362).
T8 construct: BCR (fusion partner); host or cells: Ba/F3; the other entry of the earlier key: BCR (P11274, Breakpoint cluster region protein)
T8 sequence (P11362 478-767 limits assumed): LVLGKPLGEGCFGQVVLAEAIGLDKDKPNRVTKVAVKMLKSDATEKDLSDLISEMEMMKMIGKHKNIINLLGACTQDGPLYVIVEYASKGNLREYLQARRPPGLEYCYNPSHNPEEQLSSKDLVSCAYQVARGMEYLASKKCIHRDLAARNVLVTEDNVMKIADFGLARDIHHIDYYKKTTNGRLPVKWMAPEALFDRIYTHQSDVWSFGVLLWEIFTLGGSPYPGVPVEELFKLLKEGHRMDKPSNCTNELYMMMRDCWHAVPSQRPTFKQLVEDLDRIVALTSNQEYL
The experiment in a line: Ba/F3 cell viability assay (CellTiter-Glo 2.0). The format is cell-based. The following applies: Ba/F3 cell data, BCR-FGFR1 fusion, 48 hours.

The next assay has as its target T9, Ba/F3 FGFR3-BAIAP2L1 (Homo sapiens, UniProt P22607).
T9 construct: BAIAP2L1 (fusion partner, Q9UHR4 if human); host or cells: Ba/F3; the other entry of the earlier key: BAIAP2L1 (Q9UHR4, BAR/IMD domain-containing adapter protein 2-like 1)
As to the kind of experiment: Ba/F3 cell viability assay (CellTiter-Glo 2.0). The following applies: Ba/F3 cell data, FGFR3-BAIAP2L1 fusion, 48 hours. It counts as cell-based.

A further assay has as its system KG-1. As to the kind of experiment: Cancer cell line cell viability assay (CellTiter-Glo 2.0). As to conditions: Homo sapiens; KG-1 (FGFR1-fusion) cell viability, 72 hours. The format is cell-based. An excerpt: (§1) Experimental Purpose: To detect the change of intracellular ATP by Cell Titer-Glo® and to evaluate the inhibitory effect of the compounds on cancer cell lines by determining the in vitro IC50 value of the compounds.
(§2) Cell Titer-Glo® 2.0 Luminescent cell viability assay reagent was purchased from Promega (Madison, WI). RT112/84 and KG-1 cell lines were purchased from American Type Culture Collection (Manassas, VA). UM-UC-14 cell line was purchased from Sigma (St. Louis, MO). RT112/84, UM-UC-14, and KG-1 cells were cultured in RPMI1640 media supplemented with 10% fetal bovine serum. Cultures were maintained at 37° C. in a humidified atmosphere of 5% CO2 and 95% air.
(§3) Cell Viability Assay Procedure: Cells were plated in 96-well clear bottom/white plates (Corning #3903) at 10,000 cells/well in 100 μl of media, incubated overnight. The next day, test compound DMSO stock solutions were made at 10 mM and 2 μM final concentration.
(§4) Compounds were then added to cells in a 9-dose, […] dilution series starting at 30 μM with an HP 300e Digital Dispenser (each dose was applied in triplicate). DMSO was backfilled to each well up to 301 nL total volume of test compound+DMSO, and a total of 301 nL DMSO was added to a control/no test compound well in triplicate. The cells in cell culture plates were incubated with the compounds at 37° C. and 5% CO2 for 72 hours. Then 50 μl of Cell Titer Glo 2.0 reagent was added to each well of the cell culture plates. The contents were covered from light and mixed on an orbital shaker at room temperature for 10 min.
(§5) Luminescence was recorded by a Synergy H1 Microplate Reader (Biotek, Winooski, VT). Cells were assessed as a percentage of DMSO only treated control cells. Curves were plotted and IC50 values were calculated using the GraphPad Prism 8 program based on a sigmoidal dose-response equation (4 parameter).

The test system of another assay is RT112/84. The description is as above. The format is cell-based. As to conditions: Homo sapiens; RT112/84 (FGFR3-fusion) cell viability, 72 hours.
Excerpt: as §1, §2, §3, §4, §5

T4 sequence (P22455 22-802): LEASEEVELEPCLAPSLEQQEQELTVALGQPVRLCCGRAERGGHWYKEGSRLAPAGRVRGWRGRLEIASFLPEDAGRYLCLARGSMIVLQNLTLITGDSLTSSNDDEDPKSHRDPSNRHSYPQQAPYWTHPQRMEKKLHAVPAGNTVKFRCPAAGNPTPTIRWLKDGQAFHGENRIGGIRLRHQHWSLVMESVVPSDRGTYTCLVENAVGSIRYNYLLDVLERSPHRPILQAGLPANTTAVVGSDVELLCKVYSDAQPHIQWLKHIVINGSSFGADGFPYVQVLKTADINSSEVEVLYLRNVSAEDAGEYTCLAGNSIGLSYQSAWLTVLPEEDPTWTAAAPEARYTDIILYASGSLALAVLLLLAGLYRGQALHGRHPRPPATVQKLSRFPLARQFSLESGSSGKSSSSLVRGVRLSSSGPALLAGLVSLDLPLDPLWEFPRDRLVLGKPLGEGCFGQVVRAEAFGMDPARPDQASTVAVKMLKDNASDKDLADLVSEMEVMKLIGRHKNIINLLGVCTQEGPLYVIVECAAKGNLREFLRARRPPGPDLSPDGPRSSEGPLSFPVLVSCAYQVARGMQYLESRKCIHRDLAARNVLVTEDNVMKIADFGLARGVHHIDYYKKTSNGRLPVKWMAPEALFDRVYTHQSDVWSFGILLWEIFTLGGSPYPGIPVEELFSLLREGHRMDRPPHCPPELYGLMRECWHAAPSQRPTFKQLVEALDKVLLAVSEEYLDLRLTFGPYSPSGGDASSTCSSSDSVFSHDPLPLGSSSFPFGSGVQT
T9 sequence (P22607 397-758 limits assumed): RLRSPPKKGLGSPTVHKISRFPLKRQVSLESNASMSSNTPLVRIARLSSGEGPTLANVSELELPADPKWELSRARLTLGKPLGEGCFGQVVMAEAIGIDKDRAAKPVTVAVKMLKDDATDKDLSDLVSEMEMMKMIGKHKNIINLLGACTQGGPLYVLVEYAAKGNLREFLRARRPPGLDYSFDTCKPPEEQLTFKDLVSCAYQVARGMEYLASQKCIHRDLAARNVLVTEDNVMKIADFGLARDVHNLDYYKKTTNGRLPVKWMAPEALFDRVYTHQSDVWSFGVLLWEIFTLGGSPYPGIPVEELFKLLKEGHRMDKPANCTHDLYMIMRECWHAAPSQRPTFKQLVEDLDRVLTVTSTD
T1 sequence (P22607 23-806 V555M): as the sequence (P22607 23-806) above, with V533M counted along it

As a reminder, the Kd is the concentration at which binding is half-saturated. In general, IC50 refers to the concentration that gives 50% inhibition. `C=CC(=O)N1CCC2(CC1)CC(n1nnc(-c3cc(O[C@H](CO)c4ccc(F)cn4)c4c(C#N)cnn4c3)c1C)C2` [Example 13, (S)-6-(1-(7-acryloyl-7-azaspiro[3.5]nonan-2-yl)-5-methyl-1H-1,2,3-triazol-4-yl)-4-(1-(5-fluoropyridin-2-yl)-2-hydroxyethoxy)pyrazolo[1,5-a]pyridine-3-carbonitrile]: the Kd is 0.1 to 100 nM on FGFR3 (V555M); 0.1 to 100 nM on FGFR1; 0.1 to 100 nM at FGFR3; 0.1 to 100 nM at FGFR4; 0.1 to 100 nM on FGFR2; 250 to 1000 nM at Ba/F3 ETV5-FGFR4. Moreover, the dissociation constant (Kd) on Ba/F3 BCR-FGFR2 is 100 to 250 nM; on Ba/F3 BCR-FGFR1, 250 to 1000 nM; at Ba/F3 FGFR3-BAIAP2L1 it was 0.1 to 100 nM. Moreover, the IC50 is 100 to 250 nM with KatoIIII, 0.1 to 100 nM in the assay on KG-1 and 100 to 250 nM in the assay on RT112/84.
With `C=CC(=O)N1CC(OC)(C(=O)N2CCC(n3nnc(-c4cc(O[C@H](CO)c5ccccn5)c5c(C#N)cnn5c4)c3C)CC2)C1` [Example 22, (S)-6-(1-(1-(1-acryloyl-3-methoxyazetidine-3-carbonyl)piperidin-4-yl)-5-methyl-1H-1,2,3-triazol-4-yl)-4-(2-hydroxy-1-(pyridin-2-yl)ethoxy)pyrazolo[1,5-a]pyridine-3-carbonitrile], the Kd on FGFR3 (V555M) is 0.1 to 100 nM; on FGFR1, 0.1 to 100 nM; on FGFR3, 0.1 to 100 nM; on FGFR4, 0.1 to 100 nM; on FGFR2, 0.1 to 100 nM; on Ba/F3 ETV5-FGFR4 it was no less than 1000 nM. The Kd on Ba/F3 BCR-FGFR2 was no less than 1000 nM; at Ba/F3 BCR-FGFR1, no less than 1000 nM; at Ba/F3 FGFR3-BAIAP2L1, 0.1 to 100 nM. In addition, the IC50 in the assay with KatoIIII, with KG-1 and in the assay with RT112/84 was no less than 1000 nM in each case.
Consider `C=CC(=O)N1CC(F)(C(=O)N2CCC(n3nnc(-c4cc(O[C@H](CO)c5ccccn5)c5c(C#N)cnn5c4)c3C)CC2)C1` (single isomer, unassigned) [Example 20], for which the dissociation constant (Kd) at FGFR3 (V555M) is 0.1 to 100 nM; on FGFR1, 0.1 to 100 nM; at FGFR3 it was 0.1 to 100 nM; on FGFR4, 0.1 to 100 nM; on FGFR2, 0.1 to 100 nM; on Ba/F3 ETV5-FGFR4, no less than 1000 nM. Also, the Kd at Ba/F3 BCR-FGFR2 was no less than 1000 nM; on Ba/F3 BCR-FGFR1, no less than 1000 nM; on Ba/F3 FGFR3-BAIAP2L1, 0.1 to 100 nM. The IC50 in the assay on KatoIIII is no less than 1000 nM; in the assay with KG-1, 250 to 1000 nM; in the assay on RT112/84 it was 100 to 250 nM.
Turning to `C=CC(=O)N1CCC(n2ncc(-c3cc(O[C@@H](CO)c4ccc(F)cn4)c4c(C#N)cnn4c3)c2C)CC1` [Example 2, 4-[(1R)-1-(5-fluoro-2-pyridyl)-2-hydroxy-ethoxy]-6-[5-methyl-1-(1-prop-2-enoyl-4-piperidyl)pyrazol-4-yl]pyrazolo[1,5-a]pyridine-3-carbonitrile], the Kd is 250 to 1000 nM at FGFR3 (V555M); 250 to 1000 nM at FGFR1; 250 to 1000 nM at FGFR3; no less than 1000 nM at FGFR4; 250 to 1000 nM at FGFR2; no less than 1000 nM on Ba/F3 ETV5-FGFR4. Further, the Kd was no less than 1000 nM on Ba/F3 BCR-FGFR2, no less than 1000 nM at Ba/F3 BCR-FGFR1 and 250 to 1000 nM on Ba/F3 FGFR3-BAIAP2L1. Moreover, the IC50 is 250 to 1000 nM in the assay on KatoIIII, no less than 1000 nM in the assay on KG-1 and no less than 1000 nM in the assay with RT112/84.
